Laboratory results as given in patent US20060154323A1, “Method for obtaining dynamic and structural data pertaining to proteins and protein/ligand complexes” (ProSpect Pharma, priority 2002, published 2006).

Tests used:
[1] = molecular target: T1, Major Urinary Protein (Mus musculus, UniProt P11588); test: S2axis order parameters of valine methyl groups from 600 MHz 13C R1/R2 relaxation of valine-enriched MUP and its complexes; conditions: for S^2axis: MUP-ligand complex, 600 MHz, 30° C., pH 7.0
T1 construct: made in house; host or cells: E. coli M15 cells with vector pqe30 MUP
T1 sequence (P11588 19-180): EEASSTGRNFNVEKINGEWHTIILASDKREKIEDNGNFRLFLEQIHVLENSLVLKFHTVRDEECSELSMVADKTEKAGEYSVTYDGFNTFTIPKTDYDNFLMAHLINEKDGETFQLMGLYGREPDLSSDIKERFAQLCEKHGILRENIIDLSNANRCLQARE
Description: Samples of [^13C^γ1,^γ2HD2]-U-^2H valine enriched MUP both alone and complexed with 2-methoxy-3-isopropylpyrazine and 2-methoxy-3-isobutylpyrazine were prepared from a single sample at pH 7.0 and a protein concentration of 1 mM. A further sample of methyl-^13C, ^2H enriched MUP was prepared at pH 7.0 and a protein concentration of 0.5 mM. Longitudinal (R1) and transverse (R2) ^13C relaxation rates were determined essentially as described by Ishima et al., J. Am. Chem. Soc. 121:11589-11590, 1999. All spectra were recorded at a proton frequency of 600 MHz and a probe temperature of 30° C. R1 rates were determined with relaxation delay times of 16, 64, 128, 240, 400, 720, 1120, 1600, 2240 and 2880 milliseconds. R2 rates were determined with relaxation delay times of 16, 32, 48, 64, 96, 160, 192, 240 and 288 milliseconds, and an effective field strength of 2 kHz. Relaxation data were fit to a single exponential decay function I=I0exp(−tR), where I0 is the initial resonance intensity, t is the relaxation delay time and R is the relaxation rate (R1 or R2). Relaxation data were fitted to the Lipari-Szabo model-free spectral density of the form: J(ω)=S^2τm/(1+ω^2τ^2m)+(1−S^2)τi/(1+ω^2τi^2), where τi^−1=τM^−1+τe^−1, τM is the overall molecular tumbling correlation time and τe is the effective internal correlation time. See Lipari and Szabo, J. Am. Chem. Soc. 104:4546-4559, 1982. This equation is valid for fast internal motions, τe<<τM, under which conditions the order parameter for methyl CH dipolar relaxation is given by S^2=Saxis^2[P2(cos θH]^2. Saxis^2 is the order parameter of the methyl rotation axis and θH is the angle made by the axis and the CH bond vector. A global rotational correlation time of […] was used for these calculations, according to the previously reported value. Zidek et al., Nature Str. Biol. 6:1118-1121, 1999. Although the valine residues were perdeuterated at non-methyl positions, the protein was otherwise protonated, and dipolar relaxation due to these “external” protons is not negligible for ^13C relaxation. Thus, by analogy with the work of Ishima et al. J. Am. Chem. Soc. 123:6164-6171, 2001, the contribution of these external protons to ^13C R2 values was estimated at 25% from the X-ray coordinates of MUP. Consequently, measured ^13C R^2 rates were multiplied by 0.75 to account for these external dipolar relaxation processes.

[2] = molecular target: T2, MUP (Mus musculus, UniProt P11588); test: 13C-1H HSQC spectra of valine-enriched MUP complexes; conditions: 13C-1H HSQC of complexes with valine-enriched MUP
T2 construct: made in house; host or cells: E. coli M15 cells with vector pqe30 MUP
T2 sequence (P11588 19-180): T1 sequence (P11588 19-180)

[3] = molecular target: T3, Mouse Urinary Protein (Mus musculus, UniProt P11588); test: 13C NMR relaxation (T1, T2) of valine 13CHD2-labeled MUP in absence and presence of ligand; conditions: for T1, Change / T2, Change: Protein vs Bound Protein; for T1, Bound Protein / T2, Bound Protein: 298 K;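 for T1, Bound Protein: unit milliseconds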;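 for T2, Bound Protein: unit milliseconds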
T3 construct: made in house; host or cells: E. coli M15 cells with vector pqe30 MUP
T3 sequence (P11588 19-180): T1 sequence (P11588 19-180)
Description: A 15 mg sample of L-valine-α-D-^12CD(^13CHD2)2 labeled MUP was dissolved in 650 μL phosphate buffered saline (10 mM potassium phosphate; 200 mM sodium chloride), to which was added 50 μL deuterium oxide. ^13C Relaxation rates (R2 and R1) of ^13CHD2 groups were determined using pulse sequences as described in Ishima et al., J. Am. Chem. Soc. 121:11589-11590 (1999). Spectral parameters were as follows: spectral width in the ^13C dimension, 900 Hz; spectral width in the ^1H dimension, 5200 Hz; number of real data points in the ^13C dimension, 128; number of real points in the ^1H dimension, 1408; number of transients per t1 increment, 8; probe temperature, 298 K. Prior to two-dimensional Fourier transformation, free induction decays were apodized with cosine-bell windowing functions according to known methods.
The NMR analysis was then repeated following addition of the small molecule ligand 1 μL of isobutyl pyrazine or 1 μL of isopropyl pyrazine to separate solutions of MUP. The data shown below in Tables I and II and in FIG. 8 were obtained, clearly showing the changes in T1 and T2 values obtained on addition of these small molecule ligands.

[4] = molecular target: T2, MUP; test: Binding of small hydrophobic ligands to MUP (Kd)
[5] = valine methyl 59.HG1 (first line)
[6] = valine methyl 59.HG1 (second line)

changes in Saxis^2 of the six valine residues in MUP upon binding [1]: only minor changes
S^2axis ([1]; Val-12 C^γ1): 0.86
S^2axis ([1]; Val-12 C^γ2): 0.66
S^2axis ([1]; Val-47 C^γ1): 0.86
S^2axis ([1]; Val-47 C^γ2): 0.88
S^2axis ([1]; Val-53 C^γ1): 0.78
S^2axis ([1]; Val-53 C^γ2): 0.86
S^2axis ([1]; Val-59 C^γ1): 0.63
S^2axis ([1]; Val-59 C^γ2): 0.90
S^2axis ([1]; Val-70 C^γ1): 0.81
S^2axis ([1]; Val-70 C^γ2): [1.03]
S^2axis ([1]; Val-82 C^γ1): 0.53
S^2axis ([1]; Val-82 C^γ2): 0.53
contribution of valine side-chains to the entropy of binding ([1]; from computations of Saxis^2 values, free protein and complexes): do not contribute significantly
shift perturbations of Val 82 γ1 and γ2 correlations [2]: Significant shift perturbations
T1, Change ([3]; 12.HG1): 35.219 milliseconds
T2, Change ([3]; 12.HG1): −13.500 milliseconds
T2, Change ([3]; 12.HG2): −16.796 milliseconds
T1, Change ([3]; 47.HG1): 9.550 milliseconds
T2, Change ([3]; 47.HG1): −16.055 milliseconds
T1, Change ([3]; 47.HG2): −82.069 milliseconds
T2, Change ([3]; 47.HG2): −12.196 milliseconds
T1, Change ([3]; 53.HG1): −98.976 milliseconds
T2, Change ([3]; 53.HG1): −10.901 milliseconds
T1, Change ([3]; 53.HG2): 17.840 milliseconds
T2, Change ([3]; 53.HG2): −13.096 milliseconds
T1, Change ([3]; 59.HG1 (first line)): −84.312 milliseconds
T2, Change ([3]; 59.HG1 (first line)): −22.344 milliseconds
T1, Change ([3]; 59.HG1 (second line)): 20.312 milliseconds
T2, Change ([3]; 59.HG1 (second line)): −3.040 milliseconds
T1, Change ([3]; 70.HG1): 379.619 milliseconds
T2, Change ([3]; 70.HG1): −65.766 milliseconds
T1, Change ([3]; 70.HG2): −324.602 milliseconds
T2, Change ([3]; 70.HG2): 33.869 milliseconds
T1, Change ([3]; 82.HG1): 1.260 milliseconds
T2, Change ([3]; 82.HG1): 7.645 milliseconds
T1, Change ([3]; 82.HG2): −33.349 milliseconds
T2, Change ([3]; 82.HG2): 22.399 milliseconds
contribution of valine side-chains to the entropy of binding ([3]; from relaxation data in the presence of ligand): do not contribute significantly
T1, Bound Protein ([3]; valine methyl 12.HG1): 1760.141 milliseconds
T2, Bound Protein ([3]; valine methyl 12.HG1): 166.608 milliseconds
T2, Bound Protein ([3]; valine methyl 12.HG2): 200.110 milliseconds
T1, Bound Protein ([3]; valine methyl 47.HG1): 1619.169 milliseconds
T2, Bound Protein ([3]; valine methyl 47.HG1): 171.287 milliseconds
T1, Bound Protein ([3]; valine methyl 47.HG2): 1072.690 milliseconds
T2, Bound Protein ([3]; valine methyl 47.HG2): 162.950 milliseconds
T1, Bound Protein ([3]; valine methyl 53.HG1): 2332.247 milliseconds
T2, Bound Protein ([3]; valine methyl 53.HG1): 174.600 milliseconds
T1, Bound Protein ([3]; valine methyl 53.HG2): 1382.566 milliseconds
T2, Bound Protein ([3]; valine methyl 53.HG2): 163.379 milliseconds
T1, Bound Protein [3, 5]: 1367.075 milliseconds
T2, Bound Protein [3, 5]: 200.992 milliseconds
T1, Bound Protein [3, 6]: 1502.825 milliseconds
T2, Bound Protein [3, 6]: 150.756 milliseconds
T1, Bound Protein ([3]; valine methyl 70.HG1): 1701.953 milliseconds
T2, Bound Protein ([3]; valine methyl 70.HG1): 186.968 milliseconds
T1, Bound Protein ([3]; valine methyl 70.HG2): 1488.130 milliseconds
T2, Bound Protein ([3]; valine methyl 70.HG2): 128.164 milliseconds
T1, Bound Protein ([3]; valine methyl 82.HG1): 913.641 milliseconds
T2, Bound Protein ([3]; valine methyl 82.HG1): 216.738 milliseconds
T1, Bound Protein ([3]; valine methyl 82.HG2): 703.150 milliseconds
T2, Bound Protein ([3]; valine methyl 82.HG2): 201.054 milliseconds
Kd [4]: 80 nM
SMILES: COc1nccnc1CC(C)C [2-methoxy-3-isobutylpyrazine]
